In patent publication US20230026611A1, “ARYL HETEROCYCLIC COMPOUNDS AS Kv1.3 POTASSIUM SHAKER CHANNEL BLOCKERS” (D. E. Shaw Research, LLC, priority 2019, published 2023) one finds IC50 data, which are given here for eight compounds.

The target of one assay is T1, Kv1.3 potassium channel (Homo sapiens, UniProt P22001).
T1 construct: expressed in transfected cells
Nature of the assay: Kv1.3 potassium channel blocker activity, automated whole-cell patch clamp (Patchliner) in CHO-K1 cells stably expressing Kv1.3. The class given is cell-based. Conditions: CHO-K1 cells stably expressing Kv1.3; patch clamp, current inhibition; read-out: Kv1.3 IC50. A digest of the protocol:
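CHO-K1 cells stably expressing Kv1.3 were recorded by whole-cell patch clamp, with 100 ms depolarizing pulses from −90 mV holding to +40 mV at 0.1 Hz and 10-second breaks between pulse trains. P/4 online leak subtraction was applied. Compound incubation before the next train was ≤10 seconds, and peak current inhibition was read during equilibration.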

In another assay the target is hERG channel (Homo sapiens, UniProt Q12809). Nature of the assay: hERG electrophysiology, automated whole-cell patch clamp (Patchliner) in CHO-K1 cells stably expressing hERG.

Each structure is given as a SMILES string.

Chain of hERG channel (Q12809 whole entry): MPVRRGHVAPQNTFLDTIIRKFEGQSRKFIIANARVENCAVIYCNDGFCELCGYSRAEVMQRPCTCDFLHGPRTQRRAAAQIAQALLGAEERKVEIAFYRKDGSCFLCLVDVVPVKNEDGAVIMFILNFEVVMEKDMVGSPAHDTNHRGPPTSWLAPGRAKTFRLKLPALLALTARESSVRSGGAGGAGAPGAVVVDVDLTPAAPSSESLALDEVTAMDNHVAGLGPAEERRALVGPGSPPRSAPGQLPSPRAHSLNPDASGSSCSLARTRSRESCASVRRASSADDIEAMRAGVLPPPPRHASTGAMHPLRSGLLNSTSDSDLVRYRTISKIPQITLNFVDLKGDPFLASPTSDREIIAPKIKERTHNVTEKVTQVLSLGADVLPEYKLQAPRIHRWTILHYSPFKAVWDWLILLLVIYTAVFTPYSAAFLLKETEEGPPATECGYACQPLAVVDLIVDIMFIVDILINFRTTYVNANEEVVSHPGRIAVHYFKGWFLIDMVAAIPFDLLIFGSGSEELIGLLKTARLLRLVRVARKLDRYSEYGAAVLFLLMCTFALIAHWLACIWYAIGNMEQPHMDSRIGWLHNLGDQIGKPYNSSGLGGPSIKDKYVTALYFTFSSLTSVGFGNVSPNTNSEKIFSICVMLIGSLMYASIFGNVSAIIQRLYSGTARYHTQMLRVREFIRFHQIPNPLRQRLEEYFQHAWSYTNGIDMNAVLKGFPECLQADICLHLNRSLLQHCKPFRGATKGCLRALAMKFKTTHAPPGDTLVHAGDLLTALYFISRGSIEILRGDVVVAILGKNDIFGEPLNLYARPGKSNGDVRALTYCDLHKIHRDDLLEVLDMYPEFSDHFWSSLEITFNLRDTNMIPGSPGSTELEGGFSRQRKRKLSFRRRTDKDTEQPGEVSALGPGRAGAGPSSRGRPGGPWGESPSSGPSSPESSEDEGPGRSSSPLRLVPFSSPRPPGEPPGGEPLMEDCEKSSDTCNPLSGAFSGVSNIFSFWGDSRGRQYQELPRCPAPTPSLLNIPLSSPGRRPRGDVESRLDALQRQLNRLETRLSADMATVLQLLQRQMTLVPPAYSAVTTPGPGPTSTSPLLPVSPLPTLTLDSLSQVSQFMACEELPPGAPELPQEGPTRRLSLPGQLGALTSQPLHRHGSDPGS
T1 sequence (P22001 whole entry): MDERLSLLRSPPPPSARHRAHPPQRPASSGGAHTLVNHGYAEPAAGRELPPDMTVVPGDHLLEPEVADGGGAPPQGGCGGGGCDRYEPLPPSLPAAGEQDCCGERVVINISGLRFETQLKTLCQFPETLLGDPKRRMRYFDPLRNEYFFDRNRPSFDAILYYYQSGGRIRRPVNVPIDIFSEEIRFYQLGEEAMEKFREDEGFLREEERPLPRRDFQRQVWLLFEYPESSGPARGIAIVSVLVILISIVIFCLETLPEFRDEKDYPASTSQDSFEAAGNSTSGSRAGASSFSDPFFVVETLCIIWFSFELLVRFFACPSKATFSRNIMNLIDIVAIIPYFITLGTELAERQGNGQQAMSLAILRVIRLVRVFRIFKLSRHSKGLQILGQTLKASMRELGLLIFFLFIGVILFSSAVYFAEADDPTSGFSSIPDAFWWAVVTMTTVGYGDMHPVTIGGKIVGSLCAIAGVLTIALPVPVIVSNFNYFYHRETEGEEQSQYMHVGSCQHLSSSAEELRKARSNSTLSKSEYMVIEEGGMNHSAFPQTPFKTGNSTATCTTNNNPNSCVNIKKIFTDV
Method for hERG channel: Evaluation of hERG Activities
This assay is used to evaluate the disclosed compounds's inhibition activities against the hERG channel.
CHO-K1 cells stably expressing hERG were grown in Ham's F-12 Medium with glutamine containing 10% heat-inactivated FBS, 1% penicillin/streptomycin, hygromycin (100 μg/ml) and G418 (100 μg/ml). Cells were grown in culture flasks at 37° C. in a 5% CO2-humidified incubator.
The cells were bathed in an extracellular solution containing 140 mM NaCl, 4 mM KCl, 2 mM CaCl2), 1 mM MgCl2, 5 mM Glucose, 10 mM HEPES; pH adjusted to 7.4 with NaOH; 295-305 mOsm. The internal solution contained 50 mM KCl, 10 mM NaCl, 60 mM KF, 20 mM EGTA, 10 mM HEPES; pH adjusted to 7.2 with KOH; 285 mOsm. All compounds were dissolved in DMSO at 30 mM. Compound stock solutions were freshly diluted with external solution to concentrations of 30 nM, 100 nM, 300 nM, 1 μM, 3 μM, 10 μM, 30 μM and 100 μM. The highest content of DMSO (0.3%) was present in 100 μM.
The voltage protocol (see Table B) was designed to simulate voltage changes during a cardiac action potential with a 300 ms depolarization to +20 mV (analogous to the plateau phase of the cardiac action potential), a repolarization for 300 ms to −50 mV (inducing a tail current) and a final step to the holding potential of −80 mV. The pulse frequency was 0.3 Hz. Control (compound-free) and compound pulse trains for each compound concentration applied contained 70 pulses.
Whole-cell current recordings and compound application were enabled by means of an automated patch clamp platform Patchliner (Nanion). EPC 10 patch clamp amplifier (HEKA) along with Patchmaster software (HEKA Elektronik Dr. Schulze GmbH) was used for data acquisition. Data were sampled at 10 kHz without filtering. Increasing compound concentrations were applied consecutively to the same cell without washouts in between.
AUC and PEAK values were obtained with Patchmaster (HEKA Elektronik Dr. Schulze GmbH). To determine IC50 the last single pulse in the pulse train corresponding to a given compound concentration was used. Obtained AUC and PEAK values in the presence of compound were normalized to control values in the absence of compound. Using Origin (OridinLab), IC50 was derived from data fit to Hill equation: Icompound/control=(100−A)/(1+([compound]/IC50)nH)+A, where IC50 is the concentration at which current inhibition is half-maximal, [compound] is the applied compound concentration, A is the fraction of current that is not blocked and nH is the Hill coefficient.

With `CS(=O)(=O)NCC1CC(c2c(O)ccc(Cl)c2Cl)CCN1` [Compound 100, (2R,4S)-rel-N-[[4-(2,3-dichloro-6-hydroxyphenyl)piperidin-2-yl]methyl]methanesulfonamide], the values for the IC50 on Kv1.3 potassium channel and at hERG channel were less than 1 µM and more than 30 µM, respectively.
With `O=S(=O)(NCC1CC(c2c(O)ccc(Cl)c2Cl)CCN1)c1cccnc1` [Compound 6, N-(2R,4S)-rel-[[4-(2,3-dichloro-6-hydroxyphenyl)piperidin-2-yl]methyl]pyridine-3-sulfonamide], the IC50 (commonly the point on the concentration scale where inhibition reaches its midpoint) is less than 1 µM on Kv1.3 potassium channel and more than 30 µM against hERG channel.
The matching figures for `O=C(NC1CNC1)C1CCCC(c2c(O)ccc(Cl)c2Cl)N1` (stereo not shown) [Compound 127, N-(azetidin-3-yl)-6-(2,3-dichloro-6-hydroxyphenyl)piperidine-2-carboxamide]: less than 10 µM and more than 30 µM.
As to `O=C([C@H](O)CO)N1CCC(c2c(O)ccc(Cl)c2Cl)CC1` [Compound 2, (2R)-1-[4-(2,3-dichloro-6-hydroxyphenyl)piperidin-1-yl]-2,3-dihydroxypropan-1-one], the IC50 at Kv1.3 potassium channel was less than 1 µM; against hERG channel, more than 30 µM.
In the case of `Nc1nnc([C@@H]2C[C@H](c3c(O)ccc(Cl)c3Cl)CCN2)o1` (single isomer, unassigned) [Compound 105], the IC50 at Kv1.3 potassium channel was less than 1 µM; against hERG channel, more than 30 µM.
`Oc1cc(Cl)c(Cl)cc1C1CCNC1` (single isomer, unassigned) [Compound 38, 4,5-dichloro-2-(pyrrolidin-3-yl)phenol]: the figures for the IC50 on Kv1.3 potassium channel and against hERG channel were less than 1 µM and less than 30 µM, respectively.
The like results for `Oc1c(C2CCNCC2)cc(Cl)c(Cl)c1Cl` [Compound 54, 2,3,4-trichloro-6-(piperidin-4-yl)phenol] were, in that order, less than 10 µM and less than 30 µM.
The matching figures for `Oc1cc(Cl)c(Cl)cc1C1CCCCNC1` (stereo not shown) [Compound 40, 2-(azepan-3-yl)-4,5-dichlorophenol]: less than 10 µM and less than 30 µM.
